Test: xn = mol fraction of the nth substance listed

OC1CCCCC1 + OCCO
viscosity [mPa·s], 100 kPa
Details | 293.15 K | 298.15 K | 303.15 K | 308.15 K | 313.15 K | 318.15 K
x1 = 0.0097 | 20.9 | 16.96 | 13.79 | 11.32 | 9.626 | 7.932
x1 = 0.0396 | 21.26 | 17.11 | 13.94 | 11.35 | 9.765 | 8.069
x1 = 0.058 | 21.37 | 17.21 | 14.04 | 11.44 | 9.849 | 8.139
x1 = 0.088 | 21.54 | 17.34 | 14.16 | 11.54 | 9.965 | 8.26
x1 = 0.1001 | 21.6 | 17.4 | 14.2 | 11.58 | 10 | 8.294
x1 = 0.1963 | 21.79 | 17.59 | 14.34 | 11.66 | 10.09 | 8.427
x1 = 0.3051 | 21.94 | 17.71 | 14.45 | 11.76 | 10.19 | 8.481
x1 = 0.397 | 22.13 | 17.96 | 14.66 | 12.02 | 10.42 | 8.606
x1 = 0.4994 | 23.25 | 18.43 | 15.1 | 12.54 | 10.71 | 8.723
x1 = 0.5878 | 26.46 | 20.22 | 16.33 | 12.82 | 11.32 | 9.179
x1 = 0.6994 | 31.25 | 23.24 | 18.88 | 14.44 | 12.15 | 9.912
x1 = 0.7971 | 38.27 | 28.43 | 22.87 | 17.78 | 14.34 | 11.34
x1 = 0.8978 | 53.55 | 38 | 28.77 | 22.38 | 17.93 | 13.99

CC(=O)CC(C)(C)O + OCc1ccccc1
298.15 K, 101 kPa
Details | viscosity [mPa·s]
x2 = 0.0518 | 2.886
x2 = 0.1087 | 3.021
x2 = 0.1705 | 3.199
x2 = 0.2406 | 3.41
x2 = 0.3325 | 3.67
x2 = 0.3445 | 3.703
x2 = 0.4344 | 3.968
x2 = 0.5378 | 4.295
x2 = 0.6345 | 4.596
x2 = 0.7171 | 4.831
x2 = 0.7554 | 4.935
x2 = 0.8122 | 5.096
x2 = 0.878 | 5.303
x2 = 0.9123 | 5.42
x2 = 0.9146 | 5.43

OC1CCCCC1 + Oc1ccccc1
298.15 K, 101.3 kPa
Details | viscosity [mPa·s]
x1 = 0.79 | 27.6
x1 = 0.89 | 37.1

CCC(N)=O + [Al+3].[Cl-].[Cl-].[Cl-]
viscosity [mPa·s], 101 kPa
Details | x2 = 0.5 | x2 = 0.52 | x2 = 0.57 | x2 = 0.6 | x2 = 0.63
313 K | 32.65 | 25.38 | 23.95 | 24.65 | 25.32
323 K | 23.49 | 19.12 | 17.93 | 18.32 | 18.7

C1CCCCCCC1 + c1ccccc1
303.15 K, 101 kPa
Details | viscosity [mPa·s]
x1 = 0.1002 | 0.5993
x1 = 0.2 | 0.6484
x1 = 0.2967 | 0.7078
x1 = 0.3983 | 0.788
x1 = 0.4982 | 0.8861
x1 = 0.6999 | 1.179
x1 = 0.8961 | 1.654

CCCCC + c1ccccc1
298.15 K, 101.33 kPa
Details | viscosity [mPa·s]
x2 = 0.1622 | 0.241
x2 = 0.3515 | 0.274
x2 = 0.4439 | 0.295
x2 = 0.5608 | 0.328
x2 = 0.6851 | 0.375
x2 = 0.8001 | 0.434
x2 = 0.9056 | 0.505

CCCCCCCO + c1ccccc1
viscosity [mPa·s], 100 kPa
Details | x2 = 0.0864 | x2 = 0.1561 | x2 = 0.2397 | x2 = 0.3469 | x2 = 0.4396 | x2 = 0.5661 | x2 = 0.6446 | x2 = 0.7517 | x2 = 0.8493 | x2 = 0.9561
293.15 K | 5.514 | 4.58 | 3.709 | 2.802 | 2.132 | 1.412 | 1.117 | 0.875 | 0.766 | 0.681
303.15 K | 3.992 | 3.302 | 2.668 | 2.018 | 1.568 | 1.053 | 0.859 | 0.703 | 0.625 | 0.573
313.15 K | 2.947 | 2.439 | 1.973 | 1.501 | 1.172 | 0.822 | 0.679 | 0.573 | 0.525 | 0.498
323.15 K | 2.279 | 1.918 | 1.573 | 1.203 | 0.942 | 0.665 | 0.556 | 0.479 | 0.442 | 0.437

CS(C)=O + c1ccccc1
viscosity [mPa·s], 101.3 kPa
Details | x1 = 0.1043 | x1 = 0.2048 | x1 = 0.3059 | x1 = 0.4069 | x1 = 0.5105 | x1 = 0.6085 | x1 = 0.7063 | x1 = 0.8049 | x1 = 0.9029
298.15 K | 0.669 | 0.743 | 0.829 | 0.923 | 1.036 | 1.169 | 1.317 | 1.492 | 1.712
303.15 K | 0.622 | 0.69 | 0.766 | 0.853 | 0.955 | 1.071 | 1.207 | 1.367 | 1.562
308.15 K | 0.581 | 0.643 | 0.714 | 0.796 | 0.884 | 0.99 | 1.111 | 1.258 | 1.426

CCC(N)=O + c1ccncc1
298.15 K, 101 kPa
Details | viscosity [mPa·s]
x1 = 0.0852 | 1.047
x1 = 0.1462 | 1.208
x1 = 0.2521 | 1.615

From the CheMixHub viscosity set
